Experimental findings from US20060182683A1, “Methods for reduced renal uptake of protein conjugates” (Center for Molecular Medicine and Immunology, priority 1995, published 2006) are described below.

Series [1] deals with BALB/c mice. In words: Kidney uptake and biodistribution of 99mTc-Fab′ NP-4 under lysine treatment. Format: in vivo. As to conditions: four hourly injections i.p., same conditions as L-lysine. The procedure:
(§1) After cervical dislocation, the animals were dissected.
L-lysine was injected i.p. in hourly intervals from 30 min before until 3 h after intravenous antibody injections (−30′, 1 h, 2 h, 3 h p.i.). […] At doses above this threshold, a strong dose-effect relationship was found. At 4×2000 μg/g, kidney uptake was reduced to 19±1% of the untreated control group at 4 h p.i.

In series [2] the test system is mice. In words: Biodistribution of 99mTc-Fab′ NP-4 under poly-L-lysine of different molecular weight and lysine/poly-lysine mixtures. As to conditions: for Kidney uptake of 99mTc-Fab′ NP-4 / Kidney uptake, % control / Blood level of 99mTc-Fab′ NP-4 / Liver uptake of 99mTc-Fab′ NP-4 / Lungs uptake of 99mTc-Fab′ NP-4 / Spleen uptake of 99mTc-Fab′ NP-4: 4 h p.i. On the procedure: Female BALB/c mice, 19 to 22 g of weight, 4 to 5 weeks of age (Charles River Laboratories, Boston, Mass.) were used as non-tumor-bearing animals. For a human tumor xenograft model, the human colon carcinoma cell line GW39 (Primus et al supra) was grown subcutaneously in 5- to 6-week-old female athymic mice (Harlan, Madison, Wis.). Animals were injected intravenously into the tail vein with approximately 5-10 μg of antibody fragment protein (i.e., 25-40 μCi of ^99mTc, ^188Re, and ^111In, resp.; 4 μCi of ^88Y, and 10 μCi of ^125I, respectively).
The mice were sacrificed after 4 h and 24 h for ^99mTc-labeled antibodies, and after 4, 24, 72, 96 and 168 h for ^125I, ^111In, ^88Y and ^188Re-labeled antibodies. Mice were sacrificed by anesthesia with sodium pentobarbital and bled by cardiac puncture. After cervical dislocation, the animals were dissected. Radioactivity in the tumors and tissues (liver, spleen, kidney, lung, intestine, blood and bone) was determined by gamma scintillation counting using an injection standard to correct for physical decay.
L-lysine, D-lysine and L-arginine monohydrochloride salts (Sigma, St. Louis, Mo.) were dissolved in phosphate-buffered saline (PBS) at a concentration of 160 mg/ml. L-lysine ethyl ester dihydrochloride was dissolved in PBS to yield a concentration of 80 mg/ml. Poly-L-lysine (1-4 kDa and 15-30 kDa) were used as hydrochloride salts at concentration of 25 mg/ml and 10 mg/ml, respectively.
Animals were injected with the lysine and/or poly-lysine solutions intraperitoneally in amounts and at frequencies as shown below. Human patients were infused intravenously over a three-hour period with 1.5 liters of a commercially available amino acid solution starting 15 min before the antibody injection. The data of a total of 77 patients examined with ^99mTc-labeled anti-CEA Fab′ (NP-4: n=19; F023C5: n=58) were taken as controls (infused with the same volume of 0.9% saline instead of the amino acid solution).
To attempt to reduce the necessity of frequent injections of the kidney uptake reducing agent, polymeric substances of higher molecular weight were investigated.
To reach maximal effectiveness with as few injections as possible, combinations of lysine and poly-lysine were tested.

The subject of series [3] is GW39 colonic cancer xenograft bearing nude mice. Put plainly: Biodistribution of anti-CEA 99mTc-Fab′ NP-4 under L-lysine / poly-L-lysine treatment. Particulars: poly-L-lys 0.15 mg/g i.v. at −30′. Type of series: in vivo.
Source text: as §1

[4] abbreviates: poly-L-lysine administered twice (30′ before and 1 h after antibody), first treated column, dose and size not given.
Where [5] appears, read: poly-L-lysine administered twice (30′ before and 1 h after antibody), second treated column, dose and size not given.
Where [6] appears, read: 1-4 kD, 100 μg/g once 30′ before antibody.
The mark [7] stands for this setting: 1-4 kD, 200 μg/g once 30′ before antibody.
Setting [8] is: 1-4 kD, 300 μg/g once 30′ before antibody.

Consider `NCCCC[C@@H](N)C(=O)O` [D-lysine], for which, in series [1], the “lowering of kidney uptake compared with L-lysine” value was “equally as effective as the L-isomer”.
As to poly-L-lysine, in series [2] (setting [4]), the “Kidney uptake of 99mTc-Fab′ NP-4” value is reported as 43.7 ± 10.0 and the “Kidney uptake, % control” value was 59.9 % control. In addition, in series [2] (setting [5]), the “Kidney uptake of 99mTc-Fab′ NP-4” value came out at 41.6 ± 8.8 and the “Kidney uptake, % control” value worked out at 56.9 % control.
As for Poly-L-lysine [poly-L-lysine (1-4 kD)], in series [3] (4 h p.i.), the “Blood level of 99mTc-Fab′ NP-4” value amounted to 1.7 ± 0.2; the “GW39 uptake of 99mTc-Fab′ NP-4” value worked out at 3.0 ± 1.0; the “Kidney uptake of 99mTc-Fab′ NP-4” value is listed as 30.8 ± 6.0; the “Kidney uptake, % of contr.” value is 52.2 % of contr. Moreover, in series [3] (4 h p.i.), the “Liver uptake of 99mTc-Fab′ NP-4” value came out at 1.5 ± 0.2, the “Lung uptake of 99mTc-Fab′ NP-4” value was found to be 3.1 ± 1.2 and the “Spleen uptake of 99mTc-Fab′ NP-4” value came to 1.0 ± 0.1. In series [3] (24 h p.i.), the “Blood level of 99mTc-Fab′ NP-4” value was 0.3 ± 0.0; the “GW39 uptake of 99mTc-Fab′ NP-4” value came to 2.2 ± 0.3; the “Kidney uptake of 99mTc-Fab′ NP-4” value is reported as 25.3 ± 5.7; the “Kidney uptake, % of contr.” value is recorded as 94.7 % of contr. Moreover, in series [3] (24 h p.i.), the “Liver uptake of 99mTc-Fab′ NP-4” value worked out at 0.9 ± 0.1, the “Lung uptake of 99mTc-Fab′ NP-4” value turned out to be 0.8 ± 0.6 and the “Spleen uptake of 99mTc-Fab′ NP-4” value was 0.7 ± 0.1. In series [2] (setting [6]), the “Blood level of 99mTc-Fab′ NP-4” value is listed as 3.8 ± 0.1; the “Kidney uptake of 99mTc-Fab′ NP-4” value is recorded as 95.5 ± 4.3; the “Kidney uptake, % control” value is listed as 74.8 % control; the “Liver uptake of 99mTc-Fab′ NP-4” value came to 3.0 ± 0.2. In series [2] (setting [6]), the “Lungs uptake of 99mTc-Fab′ NP-4” value was determined as 5.9 ± 3.1 and the “Spleen uptake of 99mTc-Fab′ NP-4” value is on record as 3.0 ± 0.4. Further, in series [2] (setting [7]), the “Blood level of 99mTc-Fab′ NP-4” value is given as 4.4 ± 0.5; the “Kidney uptake of 99mTc-Fab′ NP-4” value was 80.5 ± 6.9; the “Kidney uptake, % control” value was 63.0 % control; the “Liver uptake of 99mTc-Fab′ NP-4” value turned out to be 3.0 ± 0.4. In addition, in series [2] (setting [7]), the “Lungs uptake of 99mTc-Fab′ NP-4” value is on record as 3.9 ± 2.6 and the “Spleen uptake of 99mTc-Fab′ NP-4” value was 2.7 ± 0.4. Further, in series [2] (setting [8]), the “Blood level of 99mTc-Fab′ NP-4” value worked out at 5.3 ± 1.4; the “Kidney uptake of 99mTc-Fab′ NP-4” value is 67.9 ± 7.5; the “Kidney uptake, % control” value turned out to be 53.2 % control; the “Liver uptake of 99mTc-Fab′ NP-4” value is 3.5 ± 0.8. For the same compound, in series [2] (setting [8]), the “Lungs uptake of 99mTc-Fab′ NP-4” value came out at 5.6 ± 1.0 and the “Spleen uptake of 99mTc-Fab′ NP-4” value was 3.5 ± 0.4. Moreover, the “kidney uptake reduction compared with the monomer” value in series [2] (single i.p. injection) is “significantly lower doses than the monomer”.
